These results are taken from patent US12714688B2, “Margaric acid decreases PIEZ02-mediated pain” (The United States of America, as represented by The …, priority 2020, dated 2026).

The test system of experiment [1] is mechano-currents from DRG neurons. The settings on record: cited from earlier work.
The subject of experiment [2] is PIEZO2-PIEZO1 beam chimera. The experiment can be described thus: Whole-cell patch-clamp of N2A^Piezo1−/− cells transfected with Piezo2-Piezo1 beam chimera. The settings on record: MA 100 μM 18 h; latrunculin A 1 μM for 1 h. (In general: The patch-clamp technique gives a direct electrical read-out from membranes.)
Experimental: (§1) Cell culture and electrophysiology: Piezo1 knock-out mouse N2A (N2A^Piezo1−/−) cells were a gift from Dr. Gary R. Lewin, human Merkel cell carcinoma cell line (MCC13 cells; Cell Bank Australia reference number: CBA1338) were obtained from Sigma, and DRG neurons were obtained from sacrificed mice. N2A^Piezo1−/− cells were cultured in Dulbecco's Modified Eagle Medium (DMEM), 5% penicillin streptomycin and 10% fetal bovine serum (FBS); MCC13 cells were cultured in RPMI 1640 (with 2 mM L-glutamine+25 mM HEPES; Sigma), 5% penicillin-streptomycin and 10% FBS and; DRG neurons were cultured in DMEM, 1% penicillin-streptomycin, 1% MEM vitamin solution, 1% L-glutamine, and 10% horse serum. Prior to electrophysiological measurements, N2A^Piezo1−/−, MCC13 and DRG neurons were supplemented overnight (≈18 h) with MA. […] MA was obtained from Nu-Chek Prep, INC. The cultured cells were maintained at 37° C., 95% relative humidity, and 5% CO2.
For whole-cell recordings, the bath solution contained 140 mM NaCl, 6 mM KCl, 2 mM CaCl2), 1 mM MgCl2, 10 mM glucose, and 10 mM HEPES (pH 7.4; 300 mOsm). The pipette solution for voltage-clamp recordings contained: 140 mM CsCl, 5 mM EGTA, 1 mM CaCl2), 1 mM MgCl2, and 10 mM HEPES (pH 7.2); and for current clamp recordings: 140 mM KCl, 6 mM NaCl, 2 mM CaCl2), 1 mM MgCl2, 10 mM glucose, and 10 mM HEPES (pH 7.4; 300 mOsm); MA and bradykinin acetate salt (Sigma) perfused during experiments were dissolved in the bath solution to a final concentration of 300 μM for 2 min, and 1 μM for 5 min respectively; and for long exposure experiments bradykinin was supplemented to the culture medium and added to the cells 18-24 h prior recording. For cytoskeleton disruption experiments, N2A^Piezo1−/− were incubated in media supplemented with 1 μM latrunculin A (Cayman Chemicals) for 1 h prior recordings. […]
During mechanical stimulation, currents were recorded at a constant voltage (−60 mV, voltage-clamp), and voltages were recorded without injecting current (current-clamp). […]
Experiment [3] relates to mouse PIEZO2. The experiment in a line: Whole-cell patch-clamp with mechanical indentation of N2A^Piezo1−/− cells transfected with Piezo2 variant 2 (V2). The settings on record: latrunculin A 1 μM for 1 h.
Experimental: as §1
For whole-cell recordings, the bath solution contained 140 mM NaCl, 6 mM KCl, 2 mM CaCl2), 1 mM MgCl2, 10 mM glucose, and 10 mM HEPES (pH 7.4; 300 mOsm). The pipette solution for voltage-clamp recordings contained: 140 mM CsCl, 5 mM EGTA, 1 mM CaCl2), 1 mM MgCl2, and 10 mM HEPES (pH 7.2); and for current clamp recordings: 140 mM KCl, 6 mM NaCl, 2 mM CaCl2), 1 mM MgCl2, 10 mM glucose, and 10 mM HEPES (pH 7.4; 300 mOsm); MA and bradykinin acetate salt (Sigma) perfused during experiments were dissolved in the bath solution to a final concentration of 300 μM for 2 min, and 1 μM for 5 min respectively; and for long exposure experiments bradykinin was supplemented to the culture medium and added to the cells 18-24 h prior recording. For cytoskeleton disruption experiments, N2A^Piezo1−/− were incubated in media supplemented with 1 μM latrunculin A (Cayman Chemicals) for 1 h prior recordings. Pipettes were made out of borosilicate glass (Sutter Instruments) and were fire-polished before use until a resistance between 3 and 5 MΩ was reached.
During mechanical stimulation, currents were recorded at a constant voltage (−60 mV, voltage-clamp), and voltages were recorded without injecting current (current-clamp). Both variables were sampled at 100 kHz and low-pass filtered at 10 kHz using a MultiClamp™ 700 B amplifier and Clampex (Molecular Devices, LLC). […] Leak currents before mechanical stimulations were subtracted off-line from the current traces and data were digitally filtered at 2 kHz with ClampFit (Molecular Devices, LLC).
Mechanical stimulation: For indentation assays, N2A^Piezo1−/−, MCC13 DRG neurons, and human iPSC374 derived neurons were mechanically stimulated with a heat-polished blunt glass pipette (3-4 μm) driven by a piezo servo controller (E625, Physik Instrumente). The blunt pipette was mounted on a micromanipulator at an ~45° angle and positioned 3-4 μm above from the cells without indenting them. Displacement measurements were obtained with a square-pulse protocol consisting of 1 μm incremental indentation steps, each lasting 200 ms with a 2-ms ramp in 10-s intervals. The threshold of mechano-activated currents for each experiment was defined as the indentation step that evoked the first current deflection from the baseline.
The subject of experiment [4] is mice. The experiment can be described thus: Von Frey test after acute inflammation by topical AITC. The settings on record: topical AITC; saline injected mice; filaments <0.16 g. It is filed as in vivo, mouse. The procedure: Mice behavior: MA solution: MA was prepared in sterile Dulbecco's phosphate buffered saline, with 70 g/L fatty acid free bovine serum albumin (BSA; Sigma), and MA to a final concentration of 5 mM. The solution was filtered to avoid undissolved materials.
Subjects: For the experiment 8-12 weeks old male and female C57B16/J mice (N=12; control n=6; male=3, female=3) MA (n=6; male=3, female=3) per experiment were used. Mice were housed under a 12 hr light dark cycle and granted access to food and water ad libitum.
Treatment: Animals were put in two groups (control and MA) and given injections in the plantar of the left hind paw for 7 days prior behavioral assessment. Injections were given as follows: Mouse is restrained by their tail, foot, and over shoulders scruff. […]
Mechanical threshold (Von Frey test): Punctate mechanical allodynia was measured using Von Frey monofilaments (Stoelting, Inc.) in varying grams of force (0.008-1 g). Animals were placed in small enclosures over a wire mesh and the plantar of the hind paw was poked with a filament and responses were recorded. Withdrawal responses were recorded when the animal lifted, shook, or licked the paw in response to stimulus presentation. […]

For the compound GsMTx-4, the inhibition of mechano-currents result in experiment [1] was “failed to inhibit mechano-currents from DRG neurons”.

Regarding `C/C1=C/C(=O)O[C@@H]2C[C@@H](CC[C@H](C)/C=C\C=C\CC1)O[C@@](O)([C@@H]1CSC(=O)N1)C2` [latrunculin A, reference compound], the “modulation of the MA effect on the chimera by latrunculin A” value in experiment [2] is given as “not modulated by latrunculin A treatment”. The “effect of latrunculin A on PIEZO2 inhibition by MA” value was “enhances PIEZO2 inhibition by MA” in experiment [3] and “pronounced leftward shift in the MA dose-response profile for PIEZO2” in experiment [3] (listed as Latrunculin A).

As for `C=CCN=C=S` [AITC, Allyl isothiocyanate, reference compound], in experiment [4], the “withdrawal from von Frey filaments caused by AITC” value was “causes mice to withdraw their hind paws from even the lightest von Frey filaments”.
